Experimental data reported in US20260355199A1, “COMPOSITIONS AND METHODS FOR TREATING OR PREVENTING NONALCOHOLIC STEATOHEPATITIS (NASH), ANOREXIA, DEPRESSION, ENDOMETRIOSIS, AND OTHER DISEASES OR DISORDERS” (priority 2022, published 2026).
“Also recorded” adds a separate entry of the source.

Experiments:
let-7a = let-7a level in mouse peritoneal macrophages; assay type: cell-based; details: 10 μM, 48 h
Procedure: For cultured mouse peritoneal macrophages, cells were primed with 30 ng/ml of TGF-β1 (R&D Systems, 7666-MB0-005) for 48 h (to increase TET3 expression) before Bobcat339 treatment. Bobcat339 (or DMSO) was added at a final concentration of 10 μM, followed by RNA and protein extraction at time points indicated in the figure legends.
For let-7a qPCR, 10 ng of total RNA was reverse transcribed to cDNA in a reaction volume of 10 μl using miRCURY LNA RT Kit (QIAGEN, 339340). Quantitative real-time PCR reactions were carried out using miRCURY LNA SYBR Green PCR Kit (QIAGEN, 339346) and a let-7a-specific primer (Has-Let-7a-5p miRCURY LNA miRNA PCR Assay, QIAGEN, 339306/YP00205727) in a Bio-Rad iCycler. Gene expression levels were normalized against U6 (U6 snRNA v2 miRURY LNA miRNA PCR Assay, QIAGEN, 339306/YPO2119464, QIAGEN).

TET3 = TET3 protein level (immunoblot/immunofluorescence) in GT1-7 cells; assay type: cell-based, mouse; details: 10 μM
Procedure: Mouse GT1-7 hypothalamic neuronal cell line (Sigma-Aldrich, SCC116), human SH-SY5Y neuronal blastoma cell line (ATCC, CRL-2266), and embryonic mouse hypothalamus cell line N11 (mHypoE-N11) (Cedarlane, CLU107) were purchased and cultured according to the manufacturers' instructions. For siRNA transfection in a 24-well plate scale, cells were seeded at a density of 2×10^5 cells/well the day before transfection. To prepare siRNA transfection solution for each well of cells, 5 pmol of NT siRNA (non-targeting control siRNA, AM4636, Ambion), Tet3 siRNA (siRNA specifically targeting mouse Tet3, 4390815/s101483, Ambion), or TET3 siRNA (siRNA specifically targeting human TET3, 4392420/s47238, Ambion) (Cao et al., 2019, Oncogene, 38:5356-5366; Xu et al., 2020, Cell Rep., 30:1310-1318) were mixed with 25 μl of OPTI-MEM (Gibco, 31985-070) by gentle pipetting (Cao, T. et al., 2019, Oncogene, 38:5356-5366; Xu, Y. et al., 2020, Cell Reports, 30:1310-1318 e5). In parallel, 1.5 μl of Lipofectamine RNAiMAX (Invitrogen, 13778-150) was mixed with 25 μl of OPTI-MEM by gentle pipetting. […]
For Bobcat339 treatment (FIG. 15A and FIG. 15B), GT1-7 cells grown in 24-well plates at 2×10^5 cells/well were incubated with vehicle or Bobcat339 at a final concentration of 10 μM for 6 h, followed by RNA and protein extractions. […] Protein and RNA were isolated 48 h later and analyzed. […]

With `Nc1nc(=O)n(-c2cccc(-c3ccccc3)c2)cc1Cl` [Bobcat339, 4-Amino-1-[1,1′-biphenyl]-3-yl-5-chloro-2(1H)-pyrimidinone] as the compound, how does the let-7a level (let-7a) read?
Its let-7a level is “higher levels of let-7a”.

And the TET3 protein level (TET3; 6 h)?
The TET3 protein level was “a decrease in the protein level of TET3; also recorded: rapidly decreased the level of TET3 protein; also recorded: decreased TET3 expression at the protein level”.

What about the TET3 protein level (TET3; 48 h, without exogenous TET3) of the same compound?
The TET3 protein level was “decreased the level of TET3 protein”.
